Calls of active or inactive are those of the source. The rule behind the calls is not given here.
Test: mitochondrial fusion inhibitors, confirmation, cell-based, chemical genetic, wild-type and mutant (AID 1361)
Settings: Cell-based mitochondrial fusion phenotype, imaging
[1] = mutant cells, measured here: mutant cell line IC50

Structure (SMILES) | IC50 (WT cells) | IC50 [1]
Cc1ccc(SCC(=O)O/N=C(\N)c2cccc([N+](=O)[O-])c2)cc1 | > 25 µM (inactive) | > 25 µM
O=C(Nc1ccc(Cl)c(Cl)c1)c1ccc(Cn2cc(Cl)cn2)cc1 | 8.52 µM | 18.6 µM
Cc1ccc(-n2cc(C(=O)c3ccc(F)cc3)nn2)cc1Cl | > 25 µM (inactive) | > 25 µM
Cc1cc(-c2sccc2C)nc(-n2cccc2)n1 | > 25 µM (inactive) | > 25 µM
COc1ccc(NP(=O)(Oc2ccc(Cl)cc2)Oc2ccc(Cl)cc2)cc1OC | 12.6 µM | > 25 µM
CCOC(=O)Cn1c(=NC(=O)c2ccc([N+](=O)[O-])s2)sc2ccccc21 | 4.55 µM | > 25 µM
Cc1cccc(NC(=O)c2ccc(N3CCCCC3)c([N+](=O)[O-])c2)n1 | > 25 µM (inactive) | > 25 µM
CCN(Cc1ccccc1)C(c1ccc(C(F)(F)F)cc1)c1nnnn1C(C)(C)C (stereo not drawn) | 8.69 µM | > 25 µM
CC(C)=C1C2CCC1C(C(=O)Nc1sc(C)c(-c3ccc(C(C)C)cc3)c1C(N)=O)C2C(=O)O (stereo not drawn) | 20.8 µM | > 25 µM
OC(CNCc1ccc(Cl)cc1)(c1ccccc1)c1ccc(F)cc1 (stereo not drawn) | > 25 µM (inactive) | > 25 µM
Cc1nc2ccc(NC(=O)c3nn(CC(C)C)c(=O)c4ccccc34)cc2s1 | > 25 µM (inactive) | > 25 µM
O=c1ccccn1Cc1c(Cl)cccc1Cl | > 25 µM (inactive) | > 25 µM
COc1ccccc1-c1nnc(SCC(=O)NCc2c(C)c(Cl)cc(C(C)C)c2O)o1 | 9.66 µM | > 25 µM
N#CCc1ccc(NS(=O)(=O)c2ccc(C3CCCCC3)cc2)cc1 | 22.8 µM | > 25 µM
Cc1nn(-c2cc(C)c3ccccc3n2)c2c1C1C(C2)C1(C)C (stereo not drawn) | > 25 µM (inactive) | > 25 µM
CCCC12CN3CCN(CC(C3)/C1=N\NC(=O)c1ccc(C(C)(C)C)cc1)C2 | 6.28 µM | 20.2 µM
COc1ccc2ccc3c(c2c1)N=C[C@]1(O3)N(C)c2ccccc2C1(C)C | 8.07 µM | > 25 µM
Cc1ccc(Nc2nc(N)nc(CSc3nc4ccccc4s3)n2)cc1 | 14.2 µM | 17 µM
Fc1ccc(-c2csc3ncnc(N4CCc5ccccc5C4)c23)cc1 | 9.26 µM | > 25 µM
CC1CC1C(=O)OCC(=O)NCc1ccc(Cl)cc1Cl (stereo not drawn) | > 25 µM (inactive) | > 25 µM

Structure (SMILES) | IC50 (WT cells) | IC50 [1]
CCn1c2ccccc2c2cc(/C=N/NC(=O)c3cccc(C)c3)ccc21 | > 25 µM (inactive) | > 25 µM
CC1CCN(c2nc(-c3cccnc3)nc3scc(-c4ccccc4)c23)CC1 | 13.1 µM | > 25 µM
COc1ccc(NS(=O)(=O)c2cc(C(=O)O)ccc2C)cc1 | > 25 µM (inactive) | > 25 µM
O=c1c2ccccc2nc2n1C1(CCCCC1)Cc1ccccc1-2 | 23.4 µM | > 25 µM
Cc1nn(CCC(N)=S)c2nc(-c3cccs3)cc(C(F)(F)F)c12 | 18.9 µM | > 25 µM
S=C(Nc1ccccc1Oc1ccccc1)Nc1cccc(Cl)c1Cl | 12.6 µM | 22.4 µM
COc1cccc(CNC(=O)CNC(=S)N(Cc2ccccc2)Cc2ccccc2F)c1 | 23.1 µM | > 25 µM
CC(=O)N(Cc1ccc(F)cc1)C1=C(NCCc2ccccc2)C(=O)c2ccccc2C1=O | 24 µM | > 25 µM
CC1(C)C(=O)OC(c2cccn2-c2cccc([N+](=O)[O-])c2)C2(CCCCC2)C1=O (stereo not drawn) | 9.07 µM | 11.1 µM
O=C(CCc1ccccc1)Nc1ncc2c(n1)CCCC2=O | > 25 µM (inactive) | > 25 µM
CC(=O)N(C)c1nnc(-c2cnccn2)s1 | > 25 µM (inactive) | > 25 µM
CC(C)C(=O)Nc1nnc(SCC(=O)NCc2cccs2)s1 | > 25 µM (inactive) | > 25 µM
C/C(N)=C(/C#N)C(=O)COC(=O)c1cc(S(=O)(=O)N2CCCCC2)ccc1C | > 25 µM (inactive) | > 25 µM
COC(=O)c1c(NC(=O)CN2CCC3(O)CCCCC3C2c2ccccc2OC)sc(C)c1C (stereo not drawn) | 10.4 µM | > 25 µM
O=C(Nc1ccc2c(c1)OCO2)c1ccccc1SCC(=O)N1CCCC1 | > 25 µM (inactive) | > 25 µM
COc1cc(CNn2cn[nH]c2=S)cc(Cl)c1OCc1ccc(F)cc1 | 21.2 µM | > 25 µM
CC(C)CNC(=S)N1CCN(C(c2ccccc2)c2ccccc2)CC1 | 14.7 µM | > 25 µM
Cc1[nH][nH]c(=O)c1C(c1c(C)[nH][nH]c1=O)c1cn(Cc2ccc(Cl)c(Cl)c2)c2ccccc12 | 5.68 µM | > 25 µM
CSc1nc2ccc(NS(=O)(=O)c3c(Cl)cccc3Cl)cc2s1 | 19.3 µM | > 25 µM
CCN(CC)S(=O)(=O)c1cccc(C(=O)Nc2sc3c(c2C(N)=O)CCCC3)c1 | > 25 µM (inactive) | > 25 µM

Structure (SMILES) | IC50 (WT cells) | IC50 [1]
CC1=CCC[C@@H]2[C@@](C)(CC/C(C)=C/C(=O)O)[C@H](C)CC[C@@]12C | 21.7 µM | > 25 µM
O=C(NCCCN1CCOCC1)c1ccccc1-c1ccccc1 | > 25 µM (inactive) | > 25 µM
CCn1c(O)c(C(c2ccccn2)c2c(O)n(CC)c(=S)[nH]c2=O)c(=O)[nH]c1=S | > 25 µM (inactive) | > 25 µM
CC(C)(C)c1ccc(NC(=O)c2ccccc2)c([N+](=O)[O-])c1 | 24.9 µM (inactive) | > 25 µM
C/C(=N\N=C(/N)SC1CC(=O)N(c2cccc(Cl)c2)C1=O)c1cccs1 (stereo not drawn) | > 25 µM (inactive) | > 25 µM
CC(C)(C)n1nnnc1C(c1ccc(F)cc1)N(Cc1ccc(F)cc1)Cc1ccco1 (stereo not drawn) | 14.6 µM | > 25 µM
Cc1cnc(C(=O)OCC(=O)Nc2ccc(Cl)cc2)cn1 | > 25 µM (inactive) | > 12.5 µM
COc1cc(CNn2cn[nH]c2=S)cc(Br)c1OCc1ccccc1F | 19.7 µM | > 25 µM
Cc1ccc(C(c2nnnn2CCc2ccccc2)N2CCC(C)CC2)cc1 (stereo not drawn) | > 25 µM (inactive) | > 25 µM
COc1ccc(O[C@H]2C=C[C@@H](c3ccccc3)O[C@@H]2COC(=O)CC/C(C)=N/O[C@@H](C)CN2CCCCc3nc(C)c(C)cc32)cc1 | 12.1 µM | > 25 µM
CCOC(=O)C1=C(C)NC(SC(C)=O)=NC1c1ccc(OC(C)=O)c(OC)c1 (stereo not drawn) | > 25 µM (inactive) | > 25 µM
COc1ccc(NC(=O)c2ccc(-c3ccccc3C(F)(F)F)o2)cc1 | 16.4 µM | 21.7 µM
CS(=O)(=O)N(CC(=O)NCc1ccc2c(c1)OCO2)c1ccc(Cl)cc1 | > 25 µM (inactive) | > 25 µM
CCSc1ccc2cc(OC)ccc2[n+]1CC | 23.1 µM | > 25 µM
O=C(CSc1nnc2scc(-c3ccccc3)n12)Nc1ccc2c(c1)OCCO2 | > 25 µM (inactive) | > 25 µM
COC(=O)CNC(c1ccccc1)c1cc(C)ccc1NC(=O)c1cccc(Cl)c1 (stereo not drawn) | 9.38 µM | > 25 µM
CC(C)N(C(=S)NC1CCCCC1)c1ccccc1 | > 25 µM (inactive) | > 25 µM
CC1CCCN(c2nc(-c3cccnc3)nc3scc(-c4ccccc4)c23)C1 (stereo not drawn) | 11.8 µM | > 25 µM
COc1ccc(-n2cc(-c3ccccc3)c3c(N4CC(C)OC(C)C4)ncnc32)cc1 (stereo not drawn) | 21.5 µM | > 25 µM

Source: PubChem BioAssay AID1361 (SRMLSC, 2008)
